Measurements: EP2790511B1 (Merck Sharp & Dohme Corp., priority 2011, dated 2013)
Where two headings read alike, the source gives them in different places.

Biological target: T1, hROMK (hKir1.1) (Homo sapiens, UniProt P48048)
T1 construct: expressed in transfected cells
T1 sequence (P48048 1-391): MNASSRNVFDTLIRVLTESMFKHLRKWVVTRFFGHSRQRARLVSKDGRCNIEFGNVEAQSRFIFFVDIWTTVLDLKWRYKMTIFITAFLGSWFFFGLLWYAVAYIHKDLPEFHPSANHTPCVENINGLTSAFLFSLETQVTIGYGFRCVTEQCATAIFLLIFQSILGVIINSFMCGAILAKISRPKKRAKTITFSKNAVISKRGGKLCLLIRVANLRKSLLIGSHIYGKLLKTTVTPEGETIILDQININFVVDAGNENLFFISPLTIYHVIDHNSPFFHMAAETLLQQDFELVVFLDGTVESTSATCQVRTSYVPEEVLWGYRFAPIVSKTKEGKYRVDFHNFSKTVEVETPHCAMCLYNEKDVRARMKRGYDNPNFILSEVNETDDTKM
Experiment: Thallium Flux Assay
Format: cell-based
Summary of the method: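 HEK293 cells stably expressing hROMK, loaded with FluxOR dye 90 min at ambient temperature, then compound 30 min with 0.3 mM ouabain in probenecid buffer pH 7.4.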

[1] = HEK293 cells stably expressing hROMK (hKir1.1), FLIPR-Tetra, read-out: Thallium Flux IC50

| SMILES | IC50 [1] | IC50 (Thallium Flux IC50) |
| --- | --- | --- |
| COc1cc([C@@H]2CN3CCN(C(=O)Cc4ccc(-n5cnnn5)nc4)C[C@H]3CO2)ccc1C#N [Example 41, 2-methoxy-4-[(3R,9aS)-8-{[6-(1H-tetrazol-1-yl)pyridin-3-yl]acetyl}octahydropyrazino[2,1-c][1,4]oxazin-3-yl]benzonitrile] | 230 nM |  |
| Cc1c([C@H]2CN3CCN(C(=O)Cc4ccc(-n5cnnn5)nc4)C[C@H]3CN2)ccc2c1COC2=O [Example 190, 4-methyl-5-[(3S,9aR)-8-{[6-(1H-tetrazol-1-yl)pyridin-3-yl]acetyl}octahydro-2H-pyrazino[1,2-a]pyrazin-3-yl]-2-benzofuran-1(3H)-one] | 390 nM |  |
| N#Cc1c(F)ccc([C@@H]2CN3CCN(C(=O)Cc4ccc(-n5cnnn5)nc4)C[C@H]3CO2)c1F [Example 11, 2,6-difluoro-3-[(3R,9aS)-8{[6-(1H-tetrazol-1-yl)pyridin-3-yl]acetyl}octahydropyrazino[2,1-c][1,4]oxazin-3-yl]benzonitrile] |  | 90 nM |
| N#Cc1c(F)ccc([C@H]2CN3CCN(C(=O)Cc4cnc(-n5cnnn5)nc4)C[C@@H]3CO2)c1Cl [Example 126, 2-chloro-6-fluoro-3-[(3S,9aR)-8-{[2-(1H-tetrazol-1-yl)pyrimidin-5-yl]acetyl}octahydropyrazino[2,1-c][1,4]oxazin-3-yl]benzonitrile] | 140 nM |  |
| N#Cc1c(F)ccc([C@H]2CN3CCN(C(=O)Cc4ccc(-n5cnnn5)nc4)C[C@H]3CO2)c1F [Example 12, 2,6-difluoro-3-[(3S,9aS)-8-{[6-(1H-tetrazol-1-yl)pyridin-3-yl]acetyl}octahydropyrazino[2,1-c][1,4]oxazin-3-yl]benzonitrile] | 120 nM |  |
| Cc1c([C@H]2CN3CCN(C(=O)Cc4cccc(-n5cnnn5)n4)C[C@H]3CO2)ccc(F)c1C#N [Example 97, 6-fluoro-2-methyl-3-[(3S,9aS)-8-{[6-(1H-tetrazol-1-yl)pyridin-2-yl]acetyl}octahydropyrazino[2,1-c][1,4]oxazin-3-yl]benzonitrile] |  | 250 nM |
| Cc1c([C@H]2CN3CCN(C(=O)Cc4ccc(-n5cnnn5)nc4)C[C@H]3CO2)ccc(Cl)c1C#N [Example 64, 6-chloro-2-methyl-3-[(3S,9aS)-8-{[6-(1H-tetrazol-1-yl)pyridin-3-yl]acetyl}octahydropyrazino[2,1-c][1,4]oxazin-3-yl]benzonitrile] | 680 nM |  |
| COc1cc(-n2cnnn2)cnc1CC(=O)N1CCN2C[C@@H](c3ccc(F)c(C#N)c3C)OC[C@H]2C1 [Example 124, 6-fluoro-3-[(3R,9aR)-8-{[3-methoxy-5-(1H-tetrazol-1-vl)pvridin-2-yl]acetyl}octahydropyrazino[2,1-c][1,4]oxazin-3-yl]-2-methylbenzonitrile] | 330 nM |  |
| Cc1c(C2CN3CCN(C(=O)Cc4ccc(-n5cnnn5)nc4)CC3CCO2)ccc2c1COC2=O (single isomer, unassigned) [Example 163, 4-methyl-5-(2-{[6-(1H-tetrazol-1-yl)pyridin-3-yl]acetyl}octahydro-2H-pyrazino[1,2-d][1,4]oxazepin-7-yl)-2-benzofuran-1(3H)-one] |  | 210 nM |
| N#Cc1c(F)ccc([C@H]2CN3CCN(C(=O)Cc4cnc(-n5cnnn5)nc4)C[C@H]3CO2)c1Cl [Example 137, 2-chloro-6-fluoro-3-[(3S,9aS)-8-{[2-(1H-tetrazol-1-yl)pyrimidin-5-yl]acetyl}octahydropyrazino[2,1-c][1,4]oxazin-3-yl]benzonitrile] |  | 60 nM |
| Cc1nc(-n2cnnn2)ccc1CC(=O)N1CCN2C[C@H](c3cccc(C#N)c3C)OC[C@@H]2C1 [Example 92, 2-methyl-3-[(3S,9aS)-8-{[2-methyl-6-(1H-tetrazol-1-yl)pyridin-3-yl]acetyl}octahydropyrazino[2,1-c][1,4]oxazin-3-yl]benzonitrile] |  | 200 nM |
